Reference: the NIST ThermoML archive (doi:10.1021/je8003782)
Where “and” joins values, the source holds several entries; their conditions need not be identical. Equal values may be shown once. Numbers after ± are expanded uncertainties.

What was measured:
[1] = 101.3 kPa, Liquid
[2] = xn = mol fraction of the nth substance listed; details: 101 kPa, Liquid

CC(=O)O [acetic acid]
[1]
Details	mass density	viscosity
293.15 K	1049.42 ± 0.86 kg/m3 and 1049.42 ± 1.7 kg/m3	1.204 ± 0.017 mPa·s and 1.204 ± 0.029 mPa·s
298.15 K	1043.76 ± 0.82 kg/m3 and 1043.76 ± 1.6 kg/m3	1.114 ± 0.016 mPa·s and 1.114 ± 0.027 mPa·s
303.15 K	1038.1 ± 0.79 kg/m3 and 1038.1 ± 1.5 kg/m3	1.037 ± 0.016 mPa·s and 1.037 ± 0.026 mPa·s
308.15 K	1032.44 ± 0.75 kg/m3 and 1032.44 ± 1.4 kg/m3	0.964 ± 0.015 mPa·s and 0.964 ± 0.024 mPa·s
313.15 K	1026.77 ± 0.72 kg/m3 and 1026.77 ± 1.4 kg/m3	0.902 ± 0.015 mPa·s and 0.902 ± 0.023 mPa·s
318.15 K	1021.11 ± 0.68 kg/m3 and 1021.11 ± 1.3 kg/m3	0.841 ± 0.014 mPa·s and 0.841 ± 0.022 mPa·s
323.15 K	1015.44 ± 0.64 kg/m3 and 1015.44 ± 1.2 kg/m3	0.787 ± 0.014 mPa·s and 0.787 ± 0.021 mPa·s
328.15 K	1009.77 ± 0.61 kg/m3 and 1009.77 ± 1.2 kg/m3	0.741 ± 0.013 mPa·s and 0.741 ± 0.02 mPa·s
333.15 K	1004.09 ± 0.57 kg/m3 and 1004.09 ± 1.1 kg/m3	0.697 ± 0.013 mPa·s and 0.697 ± 0.019 mPa·s
338.15 K	998.38 ± 0.56 kg/m3	0.657 ± 0.013 mPa·s

CC(=O)O [acetic acid] + C1N2CN3CN1CN(C2)C3
[2], x2 = 0
Details	mass density [kg/m3]	viscosity [mPa·s]
293.15 K	1049.42 ± 1.7	1.204 ± 0.029
298.15 K	1043.76 ± 1.6	1.114 ± 0.027
303.15 K	1038.1 ± 1.5	1.037 ± 0.026
308.15 K	1032.44 ± 1.4	0.964 ± 0.024
313.15 K	1026.77 ± 1.4	0.902 ± 0.023
318.15 K	1021.11 ± 1.3	0.841 ± 0.022
323.15 K	1015.44 ± 1.2	0.787 ± 0.021
328.15 K	1009.77 ± 1.2	0.741 ± 0.02
333.15 K	1004.09 ± 1.1	0.697 ± 0.019

CC(=O)O [acetic acid] + CC(=O)OC(C)=O
[2], x1 = 1
Details	mass density [kg/m3]	viscosity [mPa·s]
293.15 K	1049.42 ± 0.86	1.204 ± 0.017
298.15 K	1043.76 ± 0.82	1.114 ± 0.016
303.15 K	1038.1 ± 0.79	1.037 ± 0.016
308.15 K	1032.44 ± 0.75	0.964 ± 0.015
313.15 K	1026.77 ± 0.72	0.902 ± 0.015
318.15 K	1021.11 ± 0.68	0.841 ± 0.014
323.15 K	1015.44 ± 0.64	0.787 ± 0.014
328.15 K	1009.77 ± 0.61	0.741 ± 0.013
333.15 K	1004.09 ± 0.57	0.697 ± 0.013
338.15 K	998.38 ± 0.56	0.657 ± 0.013

CC(=O)OC(C)=O [ethanoic anhydride]
[1]
Details	mass density [kg/m3]	viscosity [mPa·s]
293.15 K	1080.89 ± 1.5	0.888 ± 0.016
298.15 K	1074.8 ± 1.5	0.829 ± 0.015
303.15 K	1068.7 ± 1.4	0.778 ± 0.015
308.15 K	1062.61 ± 1.4	0.729 ± 0.014
313.15 K	1056.49 ± 1.4	0.688 ± 0.014
318.15 K	1050.38 ± 1.3	0.648 ± 0.014
323.15 K	1044.24 ± 1.3	0.61 ± 0.013
328.15 K	1038.07 ± 1.2	0.58 ± 0.013
333.15 K	1031.9 ± 1.2	0.548 ± 0.013
338.15 K	1025.7 ± 1.1	0.521 ± 0.013
